# In patent US20240043456A1 (Unity Biotechnology, Inc., priority 2020, published 2024):
# Legend:
# [1] = Chemical stability of free acid and salts during salt preparation; format: physicochemical
# [2] = 12-month stability test, HPLC; format: physicochemical; set-up: HPLC result, RRT 1.09: unit not given beside the values; details: for HPLC result, RRT 0.86 / HPLC result, RRT 0.94 / HPLC result, RRT 1 / HPLC result, RRT 1.05 / HPLC result, RRT 1.09 / HPLC result, RRT 1.15 / HPLC result, RRT 1.27 / HPLC result, RRT 1.29 / HPLC result, RRT 1.65: 2-8° C.
compound,measurement,setting,value
Nc1cc(Cl)nc(C(=O)[O-])c1Cl.[K+] [potassium salt],stability of the salt,[1],unstable
(R)-5-(4-chlorophenyl)-1-isopropyl-2-methyl-4-(3-(4-(4-((4-((1-(phenylthio)-4-(4-((phosphonooxy)methyl)piperidin-1-yl)butan-2-yl)amino)-3-((trifluoromethyl)sulfonyl)phenyl)sulfonamido)phenyl)piperazin-1-yl)phenyl)-1H-pyrrole-3-carboxylic acid meglumine salt,chemical stability,[1]; under experimental conditions,chemically stable
same,"HPLC result, RRT 0.86",[2]; 1 month,0.05
same,"HPLC result, RRT 0.94",[2]; 1 month,0.07
same,"HPLC result, RRT 1",[2]; 1 month,99.4
same,"HPLC result, RRT 1.05",[2]; 1 month,<0.05
same,"HPLC result, RRT 1.09",[2]; 1 month,0.07
same,"HPLC result, RRT 1.15",[2]; 1 month,<0.05
same,"HPLC result, RRT 1.27",[2]; 1 month,<0.05
same,"HPLC result, RRT 1.29",[2]; 1 month,0.38
same,"HPLC result, RRT 0.86",[2]; 2 months,0.05
same,"HPLC result, RRT 0.94",[2]; 2 months,0.07
same,"HPLC result, RRT 1",[2]; 2 months,99.4
same,"HPLC result, RRT 1.05",[2]; 2 months,<0.05
same,"HPLC result, RRT 1.09",[2]; 2 months,0.08
same,"HPLC result, RRT 1.15",[2]; 2 months,<0.05
same,"HPLC result, RRT 1.27",[2]; 2 months,<0.05
same,"HPLC result, RRT 1.29",[2]; 2 months,0.40
same,"HPLC result, RRT 0.86",[2]; 2 weeks,<0.05
same,"HPLC result, RRT 0.94",[2]; 2 weeks,0.07
same,"HPLC result, RRT 1",[2]; 2 weeks,99.4
same,"HPLC result, RRT 1.05",[2]; 2 weeks,<0.05
same,"HPLC result, RRT 1.09",[2]; 2 weeks,0.07
same,"HPLC result, RRT 1.15",[2]; 2 weeks,<0.05
same,"HPLC result, RRT 1.27",[2]; 2 weeks,<0.05
same,"HPLC result, RRT 1.29",[2]; 2 weeks,0.38
same,"HPLC result, RRT 1.65",[2]; 2 weeks,<0.05
same,"HPLC result, RRT 0.86",[2]; 3 months,0.09
same,"HPLC result, RRT 0.94",[2]; 3 months,<0.05
same,"HPLC result, RRT 1",[2]; 3 months,99.5
same,"HPLC result, RRT 1.05",[2]; 3 months,<0.05
same,"HPLC result, RRT 1.09",[2]; 3 months,0.08
same,"HPLC result, RRT 1.15",[2]; 3 months,<0.05
same,"HPLC result, RRT 1.27",[2]; 3 months,<0.05
same,"HPLC result, RRT 1.29",[2]; 3 months,0.36
same,"HPLC result, RRT 1.65",[2]; 3 months,<0.05
same,"HPLC result, RRT 0.86",[2]; 6 months,0.05
same,"HPLC result, RRT 0.94",[2]; 6 months,0.06
same,"HPLC result, RRT 1",[2]; 6 months,99.3
same,"HPLC result, RRT 1.05",[2]; 6 months,0.05
same,"HPLC result, RRT 1.09",[2]; 6 months,0.06
same,"HPLC result, RRT 1.15",[2]; 6 months,<0.05
same,"HPLC result, RRT 1.27",[2]; 6 months,<0.05
same,"HPLC result, RRT 1.29",[2]; 6 months,0.44
same,"HPLC result, RRT 1.65",[2]; 6 months,<0.05
same,"HPLC result, RRT 0.86",[2]; 9 months,0.08
same,"HPLC result, RRT 0.94",[2]; 9 months,0.06
same,"HPLC result, RRT 1",[2]; 9 months,99.2
same,"HPLC result, RRT 1.05",[2]; 9 months,0.07
same,"HPLC result, RRT 1.09",[2]; 9 months,0.09
same,"HPLC result, RRT 1.15",[2]; 9 months,<0.05
same,"HPLC result, RRT 1.27",[2]; 9 months,0.1
same,"HPLC result, RRT 1.29",[2]; 9 months,0.41
same,"HPLC result, RRT 1.65",[2]; 9 months,<0.05
same,"HPLC result, RRT 0.86",[2]; 12 months,0.08
same,"HPLC result, RRT 0.94",[2]; 12 months,0.06
same,"HPLC result, RRT 1",[2]; 12 months,99.4
same,"HPLC result, RRT 1.05",[2]; 12 months,<0.05
same,"HPLC result, RRT 1.09",[2]; 12 months,<0.05
same,"HPLC result, RRT 1.15",[2]; 12 months,0.07
same,"HPLC result, RRT 1.27",[2]; 12 months,0.09
same,"HPLC result, RRT 1.29",[2]; 12 months,0.14
same,"HPLC result, RRT 1.65",[2]; 12 months,0.18
same,"HPLC result, RRT 0.86",[2]; T0,0.06
same,"HPLC result, RRT 0.94",[2]; T0,0.07
same,"HPLC result, RRT 1",[2]; T0,99.6
same,"HPLC result, RRT 1.05",[2]; T0,<0.05
same,"HPLC result, RRT 1.09",[2]; T0,0.06
same,"HPLC result, RRT 1.15",[2]; T0,<0.05
same,"HPLC result, RRT 1.27",[2]; T0,<0.05
same,"HPLC result, RRT 1.29",[2]; T0,0.22
same,"HPLC result, RRT 1.65",[2]; T0,<0.05
same,change in purity over test period (FIG. 20),[2]; 12 month test period,little to no change
